According to PubChem BioAssay (NCI):
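Tested at 5 concentrations; 48 h exposure; 96-well plates; endpoints linearly interpolated, else capped at highest concentration. At the GI50, growth is halved. TGI marks complete inhibition of growth.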

Legend:
Assay in all cases: NCI anticancer screen, dose series, 48 h
A549 NSCLC = system: A549 NSCLC
HL-60(TB) leukemia = system: HL-60(TB) leukemia
HOP-92 NSCLC = system: HOP-92 NSCLC
KM12 colon = system: KM12 colon
MALME-3M melanoma = system: MALME-3M melanoma
SF-268 CNS = system: SF-268 CNS
SF-539 CNS = system: SF-539 CNS
SNB-75 CNS = system: SNB-75 CNS
U251 CNS = system: U251 CNS
MCF7 breast = system: MCF7 breast

Structure (SMILES) | TGI (A549 NSCLC) [µM] | TGI (HL-60(TB) leukemia) [µM] | TGI (HOP-92 NSCLC) [µM] | TGI (KM12 colon) [µM] | TGI (MALME-3M melanoma) [µM] | TGI (SF-268 CNS) [µM] | TGI (SF-539 CNS) [µM] | TGI (SNB-75 CNS) [µM] | TGI (U251 CNS) [µM] | TGI (MCF7 breast) [µM] | GI50 (A549 NSCLC) [µM] | GI50 (HL-60(TB) leukemia) [µM] | GI50 (HOP-92 NSCLC) [µM] | GI50 (KM12 colon) [µM] | GI50 (MALME-3M melanoma) [µM] | GI50 (MCF7 breast) [µM] | GI50 (SF-268 CNS) [µM] | GI50 (SF-539 CNS) [µM] | GI50 (SNB-75 CNS) [µM] | GI50 (U251 CNS) [µM]
O=C1C(Cl)N(c2ccc(Cl)cc2)C1c1c[nH]c2ccccc12 (stereo not drawn) | > 100 | 44.5 | 45.3 | > 100 | 25.6 | > 100 | 37.2 | > 100 | 25.7 |  |  |  |  |  |  |  |  |  |  | 
Oc1cn(-c2ccc(Cl)cc2)nc1-c1nnc(-c2ccccc2)o1 | 31.5 | 17.7 | 80.6 | 4.05 | 31.8 | 17.9 | 27 | > 100 | 30.8 | 7.16 |  |  |  |  |  |  |  |  |  | 
Cc1cc(C)n(C(=C(C(Cl)=C(Cl)Cl)[N+](=O)[O-])n2nc(C)cc2C)n1 | 11.4 | 3.92 | 6.78 | 13.9 | 7.86 | 16.7 | 16.4 | 18.1 | 11.7 | 8.2 |  |  |  |  |  |  |  |  |  | 
O=c1cnn(C/C=C/CBr)c(=O)[nH]1 | 33.9 | 26.5 | 28.7 | 32.7 | 32 | 39.3 | 31.6 | 33.4 | 28.8 | 36 |  |  |  |  |  |  |  |  |  | 
NS(=O)(=O)c1ccc(N=Nc2nc3[nH]c(=O)[nH]c(=O)c3[nH]2)cc1 | > 100 |  | > 100 | > 100 | > 100 | > 100 | > 100 | > 100 | > 100 | > 100 |  |  |  |  |  |  |  |  |  | 
CC1=CC(C)C/C=C/C2C3OC3(C)C(C)C3C(Cc4c[nH]c5ccccc45)NC(=O)C23C(=O)C=CC(=O)C1O (stereo not drawn) | 26.6 | 5.55 | 3.13 | 30 | 4.19 | 40.7 | 29.8 | 8.44 | 43.2 | 27.1 |  |  |  |  |  |  |  |  |  | 
CCCCN(CCCC)CC(O)c1cc(-c2ccc(C(F)(F)F)cc2)nc(-c2ccc(C(F)(F)F)cc2)c1 (stereo not drawn) |  | > 100 | > 100 |  | > 100 | > 100 | > 100 | > 100 | > 100 |  |  |  |  |  |  |  |  |  |  | 
O=C(O)c1ccc(Nc2c3ccccc3nc3ccccc23)cc1 | > 100 | > 100 | > 100 | > 100 | > 100 | > 100 | > 100 | > 100 | > 100 | > 100 |  |  |  |  |  |  |  |  |  | 
CC(C)(C)[Si](OC1CC(n2cnc3c(N)ncnc32)OC1CO)(c1ccccc1)c1ccccc1 (stereo not drawn) | 30 | > 100 | 47.3 | 38.9 | 45.9 | 35 | 36.7 |  | 34.1 |  |  |  |  |  |  |  |  |  |  | 
COc1ccc(C2COc3cc(OC(C)=O)c(OC(C)=O)cc3C2)cc1 (stereo not drawn) | 52.5 | 7.32 | 23.6 | 34 | 44.8 | 37 | 37.8 | 25.8 | 24.3 | 62.7 |  |  |  |  |  |  |  |  |  | 
c1nc(OCC2CCCCC2)c2[nH]cnc2n1 | > 100 | > 100 | > 100 | > 100 | > 100 | > 100 | > 100 | > 100 | > 100 |  |  |  |  |  |  |  |  |  |  | 
COc1ccc(N2C(=O)/C(=C(\C)c3cc4ccccc4oc3=O)N=C2c2cc([N+](=O)[O-])ccc2Cl)cc1 | > 100 | 70.8 |  | 87.4 | > 100 | > 100 | > 100 | > 100 | > 100 |  |  |  |  |  |  |  |  |  |  | 
O=C(O)CC(CC(=O)O)C(=O)O | > 100 | > 100 | > 100 | > 100 | > 100 | > 100 | > 100 | > 100 | > 100 | > 100 |  |  |  |  |  |  |  |  |  | 
FC(F)(F)c1ccc(N=C/C=C(/Nc2ccc(C(F)(F)F)cc2)c2ccc(Cl)cc2)cc1 | 35.5 | 65.5 | 51.4 | 28.6 | 40.4 | 33.2 | 31.3 | 36.8 | 28.2 | 48 |  |  |  |  |  |  |  |  |  | 
CC(=O)N(C)c1ccc(Nc2cc(C)[nH]c3ccc4ncnc4c23)cc1 | 21.7 | 18.9 | 14.7 | 27.6 | 17.5 | 38.7 | 18.6 | 30 | 30.6 | 26 |  |  |  |  |  |  |  |  |  | 
CCOc1cc2c(OCc3ccccc3)cc3c4cc(OC)c(OC)cc4c[n+](C)c3c2cc1OC | 24.2 |  | 2.08 |  | 2.18 | 4.91 | 5.43 | > 100 | 2.66 | 4.44 |  |  |  |  |  |  |  |  |  | 
CN(C)CCCNC(=O)c1cc2[nH]c3c(cnc4ccc([N+](=O)[O-])cc43)c(=O)c2n1C | 32.1 | 34.4 | 32.1 | 25.2 | 40.4 | 29.4 | 31.7 | 28.9 | 31.3 | 28.9 | 17.9 | 12.2 | 13.5 | 12 | 21.3 | 15.5 | 15.9 | 17.6 | 15.5 | 17.5
